Ten compounds from US7348349B2, “Oxazole derivatives” (Hoffmann-La Roche Inc., priority 2002, dated 2008) can be followed below.

What is called IC50 is the concentration that inhibits the measured activity by half. The EC50 is the midpoint of the concentration-response curve.

For assay [1], the target named is T1, human PPARα (Homo sapiens, UniProt Q07869).
T1 construct: PPARγ (aa 174 to 476) and PPARα (aa 167 to 469); made in house; host or cells: E. coli BL21(pLysS)
T1 sequence (Q07869 167-468 limits assumed): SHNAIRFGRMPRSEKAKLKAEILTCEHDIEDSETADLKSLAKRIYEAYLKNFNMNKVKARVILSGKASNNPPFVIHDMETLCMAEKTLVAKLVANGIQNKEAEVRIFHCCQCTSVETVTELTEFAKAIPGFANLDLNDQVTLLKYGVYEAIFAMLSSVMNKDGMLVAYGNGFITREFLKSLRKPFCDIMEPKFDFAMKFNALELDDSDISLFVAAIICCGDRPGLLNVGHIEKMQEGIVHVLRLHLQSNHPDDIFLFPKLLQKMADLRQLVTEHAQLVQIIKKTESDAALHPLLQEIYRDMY
The assay is described as follows: Radioligand binding assay, GST-PPARα-LBD. An excerpt:
(§1) Full-length cDNA clones for human PPARα and mouse PPARγ were obtained by RT-PCR from human adipose and mouse liver cRNA, respectively, cloned into plasmid vectors and verified by DNA sequencing. […] To accomplish this, the portions of the cloned sequences encoding the LBDs were amplified from the full-length clones by PCR and then subcloned into the plasmid vectors. Final clones were verified by DNA sequence analysis.
(§2) Induction, expression, and purification of GST-LBD fusion proteins were performed in E. coli strain BL21(pLysS) cells by standard methods (Ref: Current Protocols in Molecular Biology, Wiley Press, edited by Ausubel et al.).
PPARα receptor binding was assayed in TKE10 (10 mM Tris-HCl, pH 8, 50 mM KCl, 2 mM EDTA, 0.1 mg/ml fatty acid free BSA and 10 mM DTT). For each 96 well 2.4 ug equivalent of GST-PPARα-LBD fusion protein and radioligand, e.g. 40000 dpm 2(S)-(2-benzoyl-phenylamino)-3-{4-[1,1-ditritio-2-(5-methyl-2-phenyl-oxazol-4-yl)-ethoxy]-phenyl}-propionic acid, were incubated in 100 ul volume at RT for 2 hrs. Bound ligand was removed from unbound ligand by solid phase separation using MultiScreen plates (Millipore) filled with 80 ul of SG25 according to the manufacturer's recommendations.
(§3) PPARγ receptor binding was assayed in TKE50 (50 mM Tris-HCl, pH 8, 50 mM KCl, 2 mM EDTA, 0.1 mg/ml fatty acid-free BSA and 10 mM DTT). For each 96 well reaction an 140 ng equivalent of GST-PPARγ-LBD fusion protein was bound to 10 ug SPA beads (PharmaciaAmersham) in a final volume of 50 ul by shaking. The resulting slurry was incubated for 1 h at RT and centrifuged for 2 min at 1300 g. The supernatant containing unbound protein was removed and the semidry pellet containig the recptor-coated beads was resolved in 50 ul of TKE. For radioligand binding e.g. 10000 dpm 2(S)-(2-benzoyl-phenylamino)-3-{4-[1,1-ditritio-2-(5-methyl-2-phenyl-oxazol-4-yl)-ethoxy]-phenyl}-propionic acid in 50 ul were added, the reaction incubated at RT for 1 h and scintillation proximity counting performed. All binding assays were performed in 96 well plates and the amount of bound ligand measured on a Packard TopCount using OptiPlates (Packard). Nonspecific binding was determined in the presence of 10^−4 M unlabelled compound. Dose response curves were done in triplicates within a range of concentration from 10^−10 M to 10^−4 M.

Assay [2] has as its target T1, human PPARα. The assay can be described thus: Luciferase transcriptional reporter gene assay, pFA-PPARα-LBD in BHK21 cells. It is filed as cell-based. How it is done:
as §1
(§4) Baby hamster kidney cells (BHK21 ATCC CCL10) were grown in DMEM medium containing 10% FBS at 37° C. in a […] atmosphere. Cells were seeded in 6 well plates at a density of 10^5 Cells/well and then transiently batch-transfected with either the pFA-PPARγ-LBD or pFA-PPARα-LBD expression plasmids plus a reporter plasmid and an expression plasmid encoding the secretable form of alkaline phosphatase (SEAP) as a normalization control. […] Six hours following transfection, the cells were harvested by trypsinization and seeded in 96 well plates at a density of 10^4 cells/well. After 24 hours to allow attachment of cells, the medium was removed and replaced with 100 ul of phenol red-free medium containing the test substances or control ligands (final DMSO concentration: 0.1%). Following incubation of the cells for 24 hours with substances, 50 ul of the supernatant was recovered and analyzed for SEAP activity (Roche Molecular Biochemicals). The remainder of the supernatant was discarded, 50 ul PBS was added per well followed by one volume of Luciferase Constant-Light Reagent (Roche Molecular Biochemicals) to lyse the cells and initiate the luciferase reaction. Luminescence for both SEAP and luciferase was measured in a Packard TopCount. Luciferase activity was normalized to the SEAP control and transcriptional activation in the presence of a test substance was expressed as fold-activation over cells incubated in the absence of the substance. EC50 values were calculated using the XLfit program (ID Business Solutions Ltd. UK).
On the technique in general: In a reporter assay the amount or activity of a reporter protein is the signal.

Assay [3] deals with T2, mouse PPARγ (Mus musculus, UniProt P37238).
T2 sequence (P37238 204-505): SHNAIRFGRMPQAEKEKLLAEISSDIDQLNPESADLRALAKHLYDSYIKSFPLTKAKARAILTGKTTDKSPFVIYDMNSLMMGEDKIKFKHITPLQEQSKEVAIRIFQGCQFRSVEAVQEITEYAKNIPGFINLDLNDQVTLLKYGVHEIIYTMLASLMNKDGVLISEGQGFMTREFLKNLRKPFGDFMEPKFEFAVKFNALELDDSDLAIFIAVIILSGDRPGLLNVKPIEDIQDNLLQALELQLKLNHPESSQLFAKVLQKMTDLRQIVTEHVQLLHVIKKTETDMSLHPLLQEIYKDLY
The assay is described as follows: Radioligand binding assay (SPA), GST-PPARγ-LBD. More on the design: PPARγ (aa 174 to 476).
Source text: as §1, §2, §3

Assay [4] addresses T2, mouse PPARγ. The assay is described as follows: Luciferase transcriptional reporter gene assay, pFA-PPARγ-LBD in BHK21 cells. Type of assay: cell-based. More on the design: PPARγ (aa 174 to 476) and PPARα (aa 167 to 469); expressed in transfected cells; host or cells: BHK21 (ATCC CCL10). How it is done:
as §1, §4

Setting [5] is: GST-PPARα-LBD, tritiated radioligand, RT 2 hrs, read-out: PPARα IC50.
Where [6] appears, read: BHK21 cells transfected with pFA-PPARα-LBD, 24 hours incubation, read-out: PPARα EC50.
Where [7] appears, read: GST-PPARγ-LBD on SPA beads, tritiated radioligand, RT 1 h, read-out: PPARγ IC50.
[8] abbreviates: BHK21 cells transfected with pFA-PPARγ-LBD, 24 hours incubation, read-out: PPARγ EC50.

Like-named read-outs stand apart in the source and are kept apart here.

`CCO[C@@H](Cc1ccc(OCc2nc(-c3ccc(F)c(C)c3)oc2C)cc1C)C(=O)O` [Example 5, (S)-2-Ethoxy-3-{4-[2-(4-fluoro-3-methyl-phenyl)-5-methyl-oxazol-4-ylmethoxy]-2-methyl-phenyl}-propionic acid]: the IC50 on human PPARα [1] (setting [5]) was 155 nM; on mouse PPARγ [3] it was 146 nM. Moreover, the EC50 was 38 nM on human PPARα [2] (setting [6]) and 124 nM at mouse PPARγ [4].
`CCO[C@@H](Cc1c(C)cc(OCc2nc(-c3ccccc3)oc2C)cc1C)C(=O)O` [Example 29, (S)-3-[2,6-Dimethyl-4-(5-methyl-2-phenyl-oxazol-4-ylmethoxy)-phenyl]-2-ethoxy-propionic acid]: the IC50 at human PPARα [1] (setting [5]) was determined as 2380 nM; on mouse PPARγ [3], 1730 nM. Moreover, the EC50 on human PPARα [2] (setting [6]) is 213 nM; on mouse PPARγ [4] it was 678 nM.
In the case of `CN(CCOc1ccc(CC2SC(=O)NC2=O)cc1)c1ccccn1` (centres unmarked) [Rosiglitazone, reference compound], the “PPARα IC50” value at human PPARα [1] (GST-PPARα-LBD, tritiated radioligand, RT 2 hrs) is “inactive”. The “PPARα EC50” value on human PPARα [2] (BHK21 cells transfected with pFA-PPARα-LBD, 24 hours incubation) was “inactive”.
For `CCO[C@@H](Cc1ccc(OCc2nc(-c3ccc(OC(C)C)cc3)oc2C)cc1C)C(=O)O` [Example 2, (S)-2-Ethoxy-3-{4-[2-(4-isopropoxy-phenyl)-5-methyl-oxazol-4-ylmethoxy]-2-methyl-phenyl}-propionic acid], the IC50 on human PPARα [1] (setting [5]) came out at 30 nM; on mouse PPARγ [3] it was 58 nM. The EC50 on human PPARα [2] (setting [6]) was determined as 163 nM; on mouse PPARγ [4], 115 nM.
In the same order, the values of `CCO[C@@H](Cc1ccc(OCc2nc(-c3ccc(F)c(C)c3)oc2C)cc1CC)C(=O)O` [Example 9, (S)-2-Ethoxy-3-{2-ethyl-4-[2-(4-fluoro-3-methyl-phenyl)-5-methyl-oxazol-4-ylmethoxy]-phenyl}-propionic acid] are 196 nM, 129 nM, 21 nM and 33 nM.
As to `CO[C@@H](Cc1ccc(OCCc2nc(-c3ccccc3)oc2C)cc1O)C(=O)O` [Example 23, (S)-3-{2-Hydroxy-4-[2-(5-methyl-2-phenyl-oxazol-4-yl)-ethoxy]-phenyl}-2-methoxy-propionic acid], the results for the IC50 at human PPARα [1] and on mouse PPARγ [3] (setting [7]) were 52 nM and 48 nM, respectively. The EC50 on human PPARα [2] was found to be 306 nM; on mouse PPARγ [4] (setting [8]) it was 138 nM.
Turning to `CCO[C@@H](Cc1ccc(OCCCc2nc(-c3ccccc3)oc2C)cc1C)C(=O)O` [Example 43, (S)-2-Ethoxy-3-{2-methyl-4-[3-(5-methyl-2-phenyl-oxazol-4-yl)-propoxy]-phenyl}-propionic acid], the figures for the IC50 on human PPARα [1] and at mouse PPARγ [3] (setting [7]) were 131 nM and 33 nM, respectively. Also, the EC50 at human PPARα [2] turned out to be 150 nM; on mouse PPARγ [4] (setting [8]), 57 nM.
With `CCO[C@@H](Cc1ccc(OCc2nc(-c3ccc(C(C)C)cc3)oc2C)cc1OC)C(=O)O` [Example 25, (S)-2-Ethoxy-3-{4-[2-(4-isopropyl-phenyl)-5-methyl-oxazol-4-ylmethoxy]-2-methoxy-phenyl}-propionic acid], the IC50 at human PPARα [1] (setting [5]) was found to be 177 nM; on mouse PPARγ [3], 129 nM. For the same compound, the EC50 at human PPARα [2] (setting [6]) was 26 nM; at mouse PPARγ [4], 75 nM.
Taken in the same sequence, the figures for `CCO[C@@H](Cc1ccc(OCc2nc(-c3ccccc3)oc2C)cc1C)C(=O)O` [Example 3, (S)-2-Ethoxy-3-[2-methyl-4-(5-methyl-2-phenyl-oxazol-4-ylmethoxy)-phenyl]-propionic acid] were 87 nM, 506 nM, 57 nM and 87 nM.
Taken in the same sequence, the figures for `CCO[C@@H](Cc1ccc(OCc2nc(-c3ccc(OC(C)C)cc3)oc2C)cc1Cl)C(=O)O` [Example 17, (S)-3-{2-Chloro-4-[2-(4-isopropoxy-phenyl)-5-methyl-oxazol-4-ylmethoxy]-phenyl}-2-ethoxy-propionic acid] were 73 nM, 31 nM, 186 nM and 174 nM.
